Usually IC50 stands for the midpoint of a concentration-inhibition curve. Read a low IC50 as greater potency.

The target of one test is T1, α5β2 GABAAR (Rattus norvegicus, UniProt P19969+P63138).
T1 construct: gene Gabra5; full-length subunits in pcDNA3.1, co-transfected in HEK293T cells; GFP as separate marker; pentamer
The experiment in a line: whole-cell patch clamp, inhibition of GABA-evoked current. The test is classed as cell-based. (In general: In patch-clamp work, channel activity is measured electrically.)

In the next test the target is T2, α1β2 GABAAR (Rattus norvegicus, UniProt P62813+P63138).
T2 construct: gene Gabra1; full-length subunits in pcDNA3.1, co-transfected in HEK293T cells; GFP as separate marker; pentamer
T2 sequence (P62813 28-455): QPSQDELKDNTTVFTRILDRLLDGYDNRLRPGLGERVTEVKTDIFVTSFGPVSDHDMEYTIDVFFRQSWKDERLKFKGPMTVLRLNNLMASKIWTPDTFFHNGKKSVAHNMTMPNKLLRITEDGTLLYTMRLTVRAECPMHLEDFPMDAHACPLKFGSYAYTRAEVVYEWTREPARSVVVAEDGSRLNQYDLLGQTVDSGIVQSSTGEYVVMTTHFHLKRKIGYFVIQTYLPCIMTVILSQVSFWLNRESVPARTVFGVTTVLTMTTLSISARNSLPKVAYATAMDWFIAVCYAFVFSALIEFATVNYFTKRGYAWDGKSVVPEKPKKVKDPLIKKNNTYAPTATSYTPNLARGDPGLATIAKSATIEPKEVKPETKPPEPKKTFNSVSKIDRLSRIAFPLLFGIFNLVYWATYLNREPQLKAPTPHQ
T2 sequence (P63138 26-474): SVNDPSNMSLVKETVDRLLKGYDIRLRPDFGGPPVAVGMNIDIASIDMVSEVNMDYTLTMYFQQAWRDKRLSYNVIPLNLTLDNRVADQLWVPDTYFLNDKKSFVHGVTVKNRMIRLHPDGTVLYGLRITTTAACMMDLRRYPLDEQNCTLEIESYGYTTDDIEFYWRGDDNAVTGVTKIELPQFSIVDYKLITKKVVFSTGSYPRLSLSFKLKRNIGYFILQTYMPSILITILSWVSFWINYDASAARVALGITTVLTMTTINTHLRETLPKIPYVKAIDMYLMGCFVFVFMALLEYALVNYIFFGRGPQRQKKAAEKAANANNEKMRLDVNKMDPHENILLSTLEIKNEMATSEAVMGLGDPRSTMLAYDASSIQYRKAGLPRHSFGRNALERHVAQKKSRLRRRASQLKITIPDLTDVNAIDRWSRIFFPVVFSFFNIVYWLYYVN
The test is described as above. The class given is cell-based.

T1 sequence (P19969 26-464): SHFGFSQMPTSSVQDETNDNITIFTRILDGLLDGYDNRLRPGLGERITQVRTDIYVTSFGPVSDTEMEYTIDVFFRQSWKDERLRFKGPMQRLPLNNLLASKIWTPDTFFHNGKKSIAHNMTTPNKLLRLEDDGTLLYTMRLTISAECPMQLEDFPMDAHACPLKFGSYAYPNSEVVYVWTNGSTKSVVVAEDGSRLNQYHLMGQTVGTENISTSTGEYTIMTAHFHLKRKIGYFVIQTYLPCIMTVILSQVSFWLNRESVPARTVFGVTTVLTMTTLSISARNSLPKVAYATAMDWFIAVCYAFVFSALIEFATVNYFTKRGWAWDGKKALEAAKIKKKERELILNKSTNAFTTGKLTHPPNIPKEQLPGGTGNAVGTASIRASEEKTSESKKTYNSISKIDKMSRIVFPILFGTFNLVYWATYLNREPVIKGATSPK
T1 sequence (P63138 26-474): as the sequence (P63138 26-474) above

Regarding `O=c1cc(-c2ccc(O)c(O)c2)oc2cc(O)cc(O)c12` [luteolin, 2-(3,4-Dihydroxyphenyl)-5,7-dihydroxy-4-chromenone], the results for the half-maximal inhibitory concentration (IC50) on α5β2 GABAAR and at α1β2 GABAAR were 25.4 ± 9 µM and 10.8 ± 4.46 µM, respectively.

Values taken from publication PMC4904371, “Luteolin inhibits GABAA receptors in HEK cells and brain slices” (Scientific Reports, 2016).
